How the values were obtained:
HeLa = experiment: MTT cytotoxicity assay, HeLa; format: cell-based; settings: Homo sapiens, 48 h, mean ± SD, three independent experiments
Method: (§1) The in vitro cytotoxic potency of DHAA acyl-thiourea derivatives 8a–8o and 9a–9o were evaluated by 3-(4,5-dimethylthiazol-2-yl)-2,5-diphenyltetrazolium bromide (MTT) assay against HeLa, SK-OV-3 and MGC-803 tumor cell lines, with 5-FU as the positive control.
(§2) General procedure for cytotoxic evaluation in vitro: HeLa, HepG2, SK-OV-3 and MGC-803 cells were seeded into 96-well microculture plates and allowed to adhere for 24 h, respectively. After cells were exposed to compounds at concentrations from 100 to 0.01 μM for 48 h, medium was aspirated and replenished with complete medium. IC50 was evaluated by MTT tetrazolium dye assay. Each experiment was performed three times; Statistical analysis: All statistical analysis was performed with SPSS Version 10 (SPSS, Chicago, IL, USA). Data was analyzed by one-way ANOVA. Mean separations were performed using the least significant difference method. Each experiment was replicated thrice, and all experiments yielded similar results. Measurements from all the replicates were combined, and treatment effects were analyzed.

HeLa cells [1] = experiment: AO/EB staining; format: cell-based, human; settings: 10 μM, 12 and 24 h
Method: The cytotoxicity of compound 9n at a concentration of 10 μM against HeLa cells from 12 to 24 h was detected by AO/EB staining, and Hela cells not treated with the 9n were used as control for 48 h. […] Also due to the AO uptake, control cells appeared green while 9n treated cells appeared green to intense green as apoptotic cells had much more permeable membranes.
Cells were seeded at a concentration of 5 × 10^4 cell/ mL in a volume of 2 mL on a sterile cover slip in six-well tissue culture plates. Following incubation, the medium was removed and replaced with fresh medium plus 10% fetal bovine serum and supplemented with compound 9n (15 μM). After the treatment period, the cover slip with monolayer cells was inverted on a glass slide with 20 μL of AO/EB stain (100 mg/mL). Fluorescence was read on a slide with 20 μL of AO/EB stain (100 mg/mL) using a Nikon ECLIPSETE2000-S fluorescence microscope ([…], Tokyo, Japan).

HeLa cells [2] = experiment: Intracellular Ca2+ release (Fluo-3/AM); format: cell-based, human; settings: 10 μM, 24 h
Excerpt: Mitochondria have also been implicated as a source of ROS during apoptosis. […] We herein studied whether the loss of mitochondrial transmembrane potential resulting in the generation of ROS measured as described in our previous papers , using the fluorescent probe 2,7-dichlorofluorescein diacetate (DCF-DA) determined by fluorescence microscopy. […] Calcium has long been recognized as a significant participant in cell apoptosis. Therefore, we investigated whether compound 9n inducing cell death was involved in the production of Ca^2+. To investigate the effect of compound 9n on calcium release, HeLa cells treated with compound 9n at 10 μM for 24 h were loaded with the Ca^2+ indicator Fluo-3-acetoxymethyl-ester (Fluo-3/AM, 5 µM; Beyotime, Jiangsu, China).

HeLa cells [3] = experiment: Hoechst 33258 staining; format: cell-based, human; settings: 10 μM, 12 and 24 h
Method: Hoechst 33258 which stains the cell nucleus, is a membrane permeable dye with blue fluorescence. Live cells with uniformly light blue nuclei were obviously detected under the fluorescence microscope after treatment with Hoechst 33258 whereas apoptotic cells had bright blue nuclei due to karyopyknosis and chromatin condensation. However, the nuclei of dead cells could not be stained. HeLa cells treated with compound 9n at 10 μM from 12 to 24 h were stained with Hoechst 33258. HeLa cells not treated with compound 9n were used as control for 24 h.
General procedure for Hoechst 33258 staining: cells grown on a sterile cover slip in six-well tissue culture plates were treated with compounds for a certain range of time. The culture medium containing compounds was removed, and the cells were fixed in 4% paraformaldehyde for 10 min. After being washed twice with PBS, the cells were stained with 0.5 mL of Hoechst 33258 (Beyotime, Jiangsu, China) for 5 min and then again washed twice with PBS. The stained nuclei were observed under a Nikon ECLIPSETE2000-S fluorescence microscope using 350 nm excitation and 460 nm emission.

HL-7702 = experiment: MTT cytotoxicity assay, HL-7702 normal cells; format: cell-based; settings: L02, 48 h, normal human cells, mean ± SD, three independent experiments
Method: [The source words this procedure for another cell line and reports this cell line under the same test.] as §1, §2

SK-OV-3 = experiment: MTT cytotoxicity assay, SK-OV-3; format: cell-based; settings: Homo sapiens, 48 h, mean ± SD, three independent experiments
Method: as §1, §2

MGC-803 = experiment: MTT cytotoxicity assay, MGC-803; format: cell-based; settings: Homo sapiens, 48 h, mean ± SD, three independent experiments
Method: as §1, §2

HeLa cells [4] = experiment: Annexin V/PI apoptosis flow cytometry; format: cell-based, human; settings: 12 h, control 1.521%
Method: Annexin V/PI staining was performed to distinguish apoptotic and necrotic cell deaths. The apoptosis ratios induced by compound 9n in HeLa cells were quantitatively determined by flow cytometry (Figure 5). […] Apoptosis ratios (including the early and late apoptosis ratios) for compound 9n were obtained after 12 h of treatment at the concentration of 10 and 15 μM. The apoptosis of HeLa cells treated with target compound 9n increased gradually in a concentration manner. […] The results illustrated that target compound 9n suppressed cell proliferation by inducing apoptosis.
General procedure apoptosis ratios: Prepared HeLa cells (1 × 10^6 cells/mL) were washed twice with cold PBS and then re-suspended gently in 500 μL of binding buffer. Thereafter, cells were stained in 5 μL of Annexin V-FITC and shaken well. Finally, the cells were mixed with 5 μL of PI, incubated for 20 min in the dark and subsequently analyzed using FACSCalibur (Becton Dickinson, Franklin Lakes, NJ, USA).

HeLa cells [5] = experiment: TUNEL assay; format: cell-based, human; settings: 10 μM, 12 and 24 h
Method: To further define the mechanism of cell death caused by compound 9n, HeLa cells were treated with compound 9n at 10 μM from 12 to 24 h and the DNA fragmentation was measured by the TUNEL assay. TUNEL (terminal-deoxynucleotidyl transferase meditated nick end labeling) is a common method for identifying apoptotic cells in situ by detecting DNA fragmentation. When the genomic DNA is broken, the exposed 3ʹ-OH at the end of deoxynucleotide transfer as the catalytic plus green fluorescent probes fluorescein (FITC) labeled dUTP, which can be detected by fluorescence microscopy or flow cytometry, as indicated by a green color (in the web version). The results are illustrated in Figure 4. […] The results were in good agreement with the previous experiments.
The TUNEL method was performed to label the 3′-end of fragmented DNA of the apoptotic HeLa cells. The cells treated as indicated were fixed with 4% paraformaldehyde phosphate buffer saline, rinsed with PBS, then permeabilized by 0.1% Triton X-100 for FITC end-labeling the fragmented DNA of the apoptotic HeLa cells using TUNEL cell (Beyotime, Jiangsu, China) apoptosis detection kit. The FITC-labeled TUNEL-positive cells were imaged under a fluorescent microscopy by using 488 nm excitation and 530 nm emission.

CC(C)c1ccc2c(c1)CCC1[C@](C)(C(=O)NC(=S)N[C@H](Cc3ccccc3)C(=O)Nc3ccccn3)CCC[C@]21C (stereo partly drawn) [Compound 9n, (1R,4aS)-7-Isopropyl-1,4a-dimethyl-N-(((R)-1-oxo-3-phenyl-1-(pyridin-2-ylamino)propan-2-yl)carbamothioyl)-1,2,3,4,4a,9,10,10a-octahydrophenanthrene-1-carboxamide]
IC50 (HeLa): 6.58 ± 1.11 µM | apoptosis by AO/EB staining (HeLa cells [1]): obvious apoptotic characters | intracellular Ca2+ release (HeLa cells [2]): stronger green fluorescence | apoptosis by Hoechst 33258 staining (HeLa cells [3]): typical apoptotic morphology | IC50 (HL-7702): 39.6 ± 1.47 µM | IC50 (SK-OV-3): 19.6 ± 1.87 µM | IC50 (MGC-803): 16.9 ± 1.56 µM | apoptosis ratio (early and late) (HeLa cells [4]; 10 μM): 21.11% | apoptosis ratio (early and late) (HeLa cells [4]; 15 μM): 42.75% | DNA fragmentation by TUNEL (HeLa cells [5]): significantly induced apoptosis

Reference: paper PMC4519859, “Synthesis and Biological Evaluation of Novel Dehydroabietic Acid Derivatives Conjugated with Acyl-Thiourea Peptide Moiety as Antitumor Agents” (International Journal of Molecular Sciences, 2015)
